Measured values from patent publication US8247211B2, “Glycopeptide antibiotics” (American Cyanamid Company, priority 2001, dated 2012).
Converted amounts (≈) assume the structure as drawn.

Assays:
Enterococcus sp. = experiment: In vitro antibacterial evaluation: minimum inhibitory concentration (MIC), broth dilution method; type: cell-based
Outline: (§1)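 MIC by broth dilution in Mueller-Hinton II medium following NCCLS M7-A2. Inoculum was 5×10^5 CFU/mL and antibiotic was tested over 64-0.06 μg/mL. Gram-positive panel included clinical isolates resistant to methicillin, penicillin and/or vancomycin.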

Escherichia coli = experiment: as above; type: cell-based
Outline: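 MIC read as lowest drug level preventing visible growth. Organisms at 5×10^5 CFU/mL were exposed to a 64-0.06 μg/mL dilution series in Muller-Hinton II […] following NCCLS broth dilution standard M7-A2.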

Staphylococcus sp. = experiment: as above; type: cell-based; conditions: broth dilution, 18 hours at 35° C.
Outline: as §1

Streptococcus sp. = experiment: as above; type: cell-based
Outline: as §1

[1] = test system: Staphylococcus aureus-SMITH (GC 4543); experiment: Acute lethal infection in mice (ED50); type: in vivo; conditions: female CD-1 mice, intraperitoneal challenge, intravenous dose 30 min. after infection, 7 day survival ratios
Outline: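 Female CD-1 mice (20 ± 1-2 g) were infected intraperitoneally with enough bacteria, suspended in Trypticase Soy Broth or hog gastric mucin, to kill untreated controls within 24-48 hr. Compound in saline or 5% dextrose was given intravenously 30 min after infection. ED50 came from pooled 7-day survival over 3 tests.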

CC(c1ccccc1)C1NC(=O)CNC(=O)C(CO)NC(=O)C(C(O)C2CNC(=N)N2C2OC(CO)C(O)C(O)C2O)NC(=O)C(C(O)C2CNC(=N)N2)NC(=O)C(Cc2ccc(OC3OC(CO)C(OC4OC5COC(c6cccc(-c7ccccc7)c6)OC5C(O)C4O)C(O)C3O)cc2)NC1=O (stereo not drawn) [Example 154, Cyclo[glycyl-β-methylphenylalanyl-O-[4-O-[4,6-O-(3-phenylbenzylidene)hexopyranosyl)-hexopyranosyl]tyrosyl-3-(2-iminoimidazolidin-4-yl)seryl-3-(3-hexopyranosyl-2-iminoimidazolidin-4-yl)serylseryl]]
MIC Enterococcus avium (GC 4558) (Enterococcus sp.; Enterococcus avium (GC 4558), broth dilution, 18 hours at 35° C.): 1 µg/mL (≈ 0.685 µM)
MIC Enterococcus faecalis (ATCC 29212) (Enterococcus sp.; Enterococcus faecalis (ATCC 29212), broth dilution, 18 hours at 35° C.): 2 µg/mL (≈ 1.37 µM)
MIC Enterococcus faecalis (GC 4552) (Enterococcus sp.; Enterococcus faecalis (GC 4552), broth dilution, 18 hours at 35° C.): 2 µg/mL (≈ 1.37 µM)
MIC Enterococcus faecalis (GC 4553) (Enterococcus sp.; Enterococcus faecalis (GC 4553), broth dilution, 18 hours at 35° C.): 2 µg/mL (≈ 1.37 µM)
MIC Enterococcus faecalis (GC 4554) (Enterococcus sp.; Enterococcus faecalis (GC 4554), broth dilution, 18 hours at 35° C.): 2 µg/mL (≈ 1.37 µM)
MIC Enterococcus faecalis (GC 6189) (Enterococcus sp.; Enterococcus faecalis (GC 6189), broth dilution, 18 hours at 35° C.): 2 µg/mL (≈ 1.37 µM)
MIC Enterococcus faecium (GC 2243) (Enterococcus sp.; Enterococcus faecium (GC 2243), broth dilution, 18 hours at 35° C.): 2 µg/mL (≈ 1.37 µM)
MIC Enterococcus faecium (GC 4556) (Enterococcus sp.; Enterococcus faecium (GC 4556), broth dilution, 18 hours at 35° C.): 2 µg/mL (≈ 1.37 µM)
MIC Enterococcus faecium (GC 4557) (Enterococcus sp.; Enterococcus faecium (GC 4557), broth dilution, 18 hours at 35° C.): 2 µg/mL (≈ 1.37 µM)
MIC Enterococcus faecalis (ATCC 29212) (Enterococcus sp.; strain ATCC 29212): 2 µg/mL (≈ 1.37 µM)
MIC Enterococcus faecalis (GC 2242) (Enterococcus sp.; strain GC 2242): 2 µg/mL (≈ 1.37 µM)
MIC Enterococcus faecium (GC 2243) (Enterococcus sp.; strain GC 2243): 2 µg/mL (≈ 1.37 µM)
MIC Enterococcus faecalis (GC 2691) (Enterococcus sp.; strain GC 2691): 2 µg/mL (≈ 1.37 µM)
MIC Enterococcus faecalis (GC 3059) (Enterococcus sp.; strain GC 3059): 2 µg/mL (≈ 1.37 µM)
MIC Enterococcus faecalis (GC 4552) (Enterococcus sp.; strain GC 4552): 2 µg/mL (≈ 1.37 µM)
MIC Enterococcus faecalis (GC 4553) (Enterococcus sp.; strain GC 4553): 2 µg/mL (≈ 1.37 µM)
MIC Enterococcus faecalis (GC 4554) (Enterococcus sp.; strain GC 4554): 2 µg/mL (≈ 1.37 µM)
MIC Enterococcus faecium (GC 4556) (Enterococcus sp.; strain GC 4556): 2 µg/mL (≈ 1.37 µM)
MIC Enterococcus faecium (GC 4557) (Enterococcus sp.; strain GC 4557): 2 µg/mL (≈ 1.37 µM)
MIC Enterococcus avium (GC 4558) (Enterococcus sp.; strain GC 4558): 1 µg/mL (≈ 0.685 µM)
MIC Enterococcus faecalis (GC 6189) (Enterococcus sp.; strain GC 6189): 2 µg/mL (≈ 1.37 µM)
MIC Escherichia coli (ATCC 25922) (Escherichia coli; strain ATCC 25922): 32 µg/mL (≈ 21.9 µM)
MIC Escherichia coli (GC 4559) (Escherichia coli; strain GC 4559): 32 µg/mL (≈ 21.9 µM)
MIC Escherichi coli (GC 4560) (Escherichia coli; strain GC 4560): 2 µg/mL (≈ 1.37 µM)
MIC Coagulase Negative Staphylococcus (GC 4547) (Staphylococcus sp.; 5×10^5 CFU/mL): 2 µg/mL (≈ 1.37 µM)
MIC Coagulase Negative Staphylococcus (GC 4548) (Staphylococcus sp.; 5×10^5 CFU/mL): 0.5 µg/mL (≈ 0.343 µM)
MIC Coagulase Negative Staphylococcus (GC 4549) (Staphylococcus sp.; 5×10^5 CFU/mL): 0.25 µg/mL (≈ 0.171 µM)
MIC Coagulase Negative Staphylococcus (GC 4551) (Staphylococcus sp.; 5×10^5 CFU/mL): 2 µg/mL (≈ 1.37 µM)
MIC Coagulase Negative Staphylococcus (GC 6257) (Staphylococcus sp.; 5×10^5 CFU/mL): 1 µg/mL (≈ 0.685 µM)
MIC Staphylococcus aureus (ATCC 29213) (Staphylococcus sp.; 5×10^5 CFU/mL): 1 µg/mL (≈ 0.685 µM)
MIC Staphylococcus aureus (GC 1131) (Staphylococcus sp.; 5×10^5 CFU/mL): 1 µg/mL (≈ 0.685 µM)
MIC Staphylococcus aureus (GC 3051) (Staphylococcus sp.; 5×10^5 CFU/mL): 1 µg/mL (≈ 0.685 µM)
MIC Staphylococcus aureus (GC 3053) (Staphylococcus sp.; 5×10^5 CFU/mL): 2 µg/mL (≈ 1.37 µM)
MIC Staphylococcus aureus (GC 4541) (Staphylococcus sp.; 5×10^5 CFU/mL): 1 µg/mL (≈ 0.685 µM)
MIC Staphylococcus aureus (GC 4542) (Staphylococcus sp.; 5×10^5 CFU/mL): 1 µg/mL (≈ 0.685 µM)
MIC Staphylococcus aureus (GC 4544) (Staphylococcus sp.; 5×10^5 CFU/mL): 2 µg/mL (≈ 1.37 µM)
MIC Staphylococcus aureus (GC 4545) (Staphylococcus sp.; 5×10^5 CFU/mL): 1 µg/mL (≈ 0.685 µM)
MIC Staphylococcus aureus-SMITH (GC 4543) (Staphylococcus sp.; 5×10^5 CFU/mL): 1 µg/mL (≈ 0.685 µM)
MIC Staphylococcus haemolyticus (GC 4546) (Staphylococcus sp.; 5×10^5 CFU/mL): 1 µg/mL (≈ 0.685 µM)
MIC Staphylococcus aureus (ATCC 29213) (Staphylococcus sp.; strain ATCC 29213): 1 µg/mL (≈ 0.685 µM)
MIC Staphylococcus aureus (GC 1131) (Staphylococcus sp.; strain GC 1131): 1 µg/mL (≈ 0.685 µM)
MIC Staphylococcus aureus (GC 3051) (Staphylococcus sp.; strain GC 3051): 1 µg/mL (≈ 0.685 µM)
MIC Staphylococcus aureus (GC 3053) (Staphylococcus sp.; strain GC 3053): 2 µg/mL (≈ 1.37 µM)
MIC Staphylococcus aureus (GC 4541) (Staphylococcus sp.; strain GC 4541): 1 µg/mL (≈ 0.685 µM)
MIC Staphylococcus aureus (GC 4542) (Staphylococcus sp.; strain GC 4542): 1 µg/mL (≈ 0.685 µM)
MIC Staphylococcus aureus-SMITH (GC 4543) (Staphylococcus sp.; strain GC 4543): 1 µg/mL (≈ 0.685 µM)
MIC Staphylococcus aureus (GC 4544) (Staphylococcus sp.; strain GC 4544): 2 µg/mL (≈ 1.37 µM)
MIC Staphylococcus aureus (GC 4545) (Staphylococcus sp.; strain GC 4545): 1 µg/mL (≈ 0.685 µM)
MIC Staphylococcus haemolyticus (GC 4546) (Staphylococcus sp.; strain GC 4546): 1 µg/mL (≈ 0.685 µM)
MIC Coagulase Negative Staphylococcus (GC 4547) (Staphylococcus sp.; strain GC 4547): 2 µg/mL (≈ 1.37 µM)
MIC Coagulase Negative Staphylococcus (GC 4548) (Staphylococcus sp.; strain GC 4548): 0.5 µg/mL (≈ 0.343 µM)
MIC Coagulase Negative Staphylococcus (GC 4549) (Staphylococcus sp.; strain GC 4549): 0.25 µg/mL (≈ 0.171 µM)
MIC Coagulase Negative Staphylococcus (GC 4551) (Staphylococcus sp.; strain GC 4551): 2 µg/mL (≈ 1.37 µM)
MIC Coagulase Negative Staphylococcus (GC 6257) (Staphylococcus sp.; strain GC 6257): 1 µg/mL (≈ 0.685 µM)
MIC Streptococcus pneumoniae (ATCC 6301) (Streptococcus sp.; strain ATCC 6301): <0.06 µg/mL
MIC Streptococcus pneumoniae (GC 1894) (Streptococcus sp.; strain GC 1894): <0.06 µg/mL
MIC Streptococcus pyogenes (GC 4563) (Streptococcus sp.; strain GC 4563): <0.06 µg/mL
MIC Streptococcus agalactiae (GC 4564) (Streptococcus sp.; strain GC 4564): <0.06 µg/mL
MIC Streptococcus pneumoniae (GC 4565) (Streptococcus sp.; strain GC 4565): <0.06 µg/mL
median effective dose (ED50), Staphylococcus aureus-SMITH (GC 4543) [1]: 0.1 mg/kg
